Measured values as given in ChEMBL document CHEMBL4251694 (ACS Med Chem Lett, 2018).
Calls of active or inactive are those of the source. No cut-off for these calls is given here.

Columns and labels:
Influenza A virus [1] = assay: Antiviral activity against Influenza A virus A/Udorn/72 H3N2 infected in MDCK cells assessed as reduction in virus-induced cytopathic effect by crystal violet staining based light-microscopic analysis; format: functional, organism-based, Influenza A virus (A/udorn/1972(H3N2))
Influenza A virus [2] = assay: Antiviral activity against Influenza A virus A/WSN/33 H1N1 infected in MDCK cells assessed as reduction in virus-induced cytopathic effect by crystal violet staining based light-microscopic analysis; format: functional, organism-based; details: A/WSN/1933(H1N1)
Influenza A virus [3] = assay: Antiviral activity against Influenza A virus A/Udorn/72 H3N2 infected in MDCK cells assessed as reduction in plaque formation by crystal violet staining based assay; format: functional, organism-based; details: Influenza A virus (A/udorn/1972(H3N2))
[4] = Cytotoxicity against MDCK cells after 72 hrs by crystal violet staining based spectrophotometric method; format: cell-based, Canis lupus familiaris; details: dog
Influenza A virus [5] = assay: Antiviral activity against Influenza A virus (A/Hong Kong/68(H3N2)) infected in MDCK cells assessed as reduction in virus-induced cytopathic effect by crystal violet staining based light-microscopic analysis; format: functional, organism-based
[6] = target: Matrix protein 2 (Influenza A virus (A/Udorn/307/1972(H3N2)), UniProt P0DOF8); assay: Binding affinity to Influenza A virus A/Udorn/72 wild-type M2 proton channel by isothermal calorimetric titration; parameters: species or system Influenza A virus (A/udorn/1972(H3N2))
[7] = target: Matrix protein 2 (Influenza A virus (A/Udorn/307/1972(H3N2)), UniProt P0DOF8); assay: Inhibition of Influenza A virus A/Udorn/72 wild-type M2 proton channel expressed in Xenopus laevis oocytes assessed as blockade of inward currents at pH 5.5 after 5 mins by two-electrode voltage clamp assay; format: cell-based, Influenza A virus (A/udorn/1972(H3N2))
[8] = target: Matrix protein 2 (Influenza A virus (A/Udorn/307/1972(H3N2)), UniProt P0DOF8); assay: Inhibition of Influenza A virus A/Udorn/72 wild-type M2 proton channel expressed in Xenopus laevis oocytes assessed as blockade of inward currents at pH 5.5 after 2 mins by two-electrode voltage clamp assay; format: cell-based, Influenza A virus (A/udorn/1972(H3N2))
[9] = target: Matrix protein 2 (Influenza A virus (A/Udorn/307/1972(H3N2)), UniProt P0DOF8); assay: Binding affinity to Influenza A virus A/Udorn/72 wild-type M2 proton channel expressed in Xenopus laevis oocytes at pH 5.5 by two-electrode voltage clamp assay; format: cell-based, Influenza A virus (A/udorn/1972(H3N2))
Influenza A virus [10] = assay: Antiviral activity against Influenza A virus A/Udorn/72 H3N2 infected in MDCK cells assessed as reduction in plaque size by crystal violet staining based assay; format: functional, organism-based; details: Influenza A virus (A/udorn/1972(H3N2))

Sequence of Matrix protein 2 (Influenza A virus (A/Udorn/307/1972(H3N2)), UniProt P0DOF8) (P0DOF8 whole entry): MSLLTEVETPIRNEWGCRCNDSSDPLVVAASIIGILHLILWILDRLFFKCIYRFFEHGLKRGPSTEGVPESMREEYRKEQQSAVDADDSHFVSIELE

| SMILES | EC50 (Influenza A virus [1]) [µM] | EC50 (Influenza A virus [2]) [µM] | Activity (Influenza A virus [3]) | CC50 at 72 h [4] [µM] | EC50 (Influenza A virus [5]) [µM] | Kd [6] [µM] | IC50 [7] [µM] | IC50 [8] [µM] | Kd [9] [µM] | Activity (Influenza A virus [10]) |
| --- | --- | --- | --- | --- | --- | --- | --- | --- | --- | --- |
| NC12CC3CC(CC(C3)C1)C2 [AMANTADINE] | 0.78 | > 100 | Active | > 100 | – | – | – | – | – | – |
| C[C@H](N)C12CC3CC(CC(C3)C1)C2 | 0.06 | > 100 | Active | > 100 | – | – | – | – | – | – |
| C[C@@H](N)C12CC3CC(CC(C3)C1)C2 | 0.05 | > 100 | Active | > 100 | – | – | – | – | – | – |
| CC(N)C12CC3CC(CC(C3)C1)C2 (stereo unspecified) [RIMANTADINE] | 0.09 | > 100 | Active | > 100 | 0.05 | – | – | – | – | – |
| CC(C)(N)C12CC3CC(CC(C3)C1)C2 | 0.01 | > 100 | Active | > 100 | 0.012 | 0.13 | 4 | 9.3 | 13 | – |
| CCC(N)(CC)C12CC3CC(CC(C3)C1)C2 | 0.41 | > 100 | Active | > 100 | 0.46 | 4.59 | 13.2 | 24.3 | – | – |
| CCCC(N)(CCC)C12CC3CC(CC(C3)C1)C2 | 1.07 | > 100 | inactive | 57.3 | 0.45 | 3.43 | – | – | 88 | Active |
| CCOC(=O)C1=C[C@@H](OC(CC)CC)[C@H](NC(C)=O)[C@@H](N)C1 [OSELTAMIVIR] | 0.001 | 0.03 | – | > 100 | 0.002 | – | – | – | – | – |
